One assay relates to HSV-1. Description: HSV Antiviral (ELISA) Assay. The format is cell-based, herpes simplex virus type 1. The conditions noted are these: Vero cells, HSV-1; for IC50: Human alphaherpesvirus 1, Vero, read-out: IC50 Ug/ml HSV. How it is done: Vero cells (ATCC #CCL-81) are plated on 96-well tissue culture plates at 3.5×10^4 cells per 100 μl tissue culture DMEM (Dulbecco's modified Eagle media) supplemented with 2% fetal bovine serum (FBS) in each well. After overnight incubation @ 37° C. (in 5% CO2) and 30 minutes prior to infection with HSV-1 (multiplicity of infection equal to 0.006), cells are either untreated, or treated with test compound (multiple concentrations) or reference standard drug control. After approximately 24 hours post-infection incubation @ 37° C. (in 5% CO2), cells are fixed for ELISA assay. The primary antibody is murine anti-HSV glycoprotein D monoclonal primary antibody and the secondary antibody is goat anti-mouse IgG linked to β-galactosidase. Thus the extent of viral replication is determined by assessing β-galactosidase activity by quantifying the generation of the 4-methyl umbelliferone fluorescent cleavage product after addition of the methyl umbelliferyl-β-D-galactoside (Sigma #M1633) substrate on a microfluorimeter (365 nm for excitation and 450 nm for emission). Antiviral activity (IC50) of the test compound is determined by comparing the flourescence obtained in absence of compound to that obtained in the presence of compound.

The test system of another assay is HCMV wild-type. Put plainly: HCMV yield assay. The format is cell-based, human cytomegalovirus. As to conditions: human foreskin fibroblasts; for IC50: Human betaherpesvirus 5, Fibroblast, read-out: IC50 Ug/ml HCMV. How it is done:
Yield assay. Monolayer cultures of human foreskin fibroblasts are infected with HCMV wild-type, typically at a multiplicity of infection equal to 0.2, in the presence of inhibitor compound (varying concentrations). At three days post-infection, total virus produced in these cultures (i.e. virus yield) is assessed by harvesting and titering the virus in 12-well plates of cultured human foreskin fibroblasts (done in the absence of inhibitor). Plaques are quantified at 2 weeks post-infection. An inhibitor of HCMV is identified by the reduction in titer of virus yield in the presence, compared to the titer in the absence of compound. In this assay, the relative anti-HCMV activity of an inhibitor is typically determined by calculating the IC50 or IC90 value, that is, the amount of compound required to reduce the virus yield by 50% or 90%, respectively. Table I describes IC50 data for compounds tested against HCMV.

The next assay concerns VZV strain Ellen. Description: VZV Antiviral (ELISA) Assay. The format is cell-based, varicella-zoster virus. As to conditions: Human alphaherpesvirus 3, Fibroblast, human foreskin fibroblast cells; for IC50: read-out: IC50 Ug/ml VZV; for inhibition at 10 µg/mL: read-out: % inhibition 10 ug/ml VZV, 10 ug/ml. How it is done: For the generation of stock VZV to be used in the assay, VZV strain Ellen (ATCC #VR-1367) is used to infect human foreskin fibroblast (HFF) cells at low multiplicity (less than 0.1) and incubated overnight at 37° C. in 5% CO2. After the overnight incubation, the mixture of uninfected and VZV-infected HFF infected cells are then harvested and added to each well of 96-well plates (3.5×10^4 cells in 100 μl DMEM supplemented with 2% FBS) which contain test compound or the reference standard drug control (in 100 μl DMEM supplemented with 2% FBS per well). These cells are incubated for three days at 37° C. in 5% CO2, then fixed for ELISA assay. The primary antibody is murine anti-VZV glycoprotein II monoclonal antibody (Applied Biosystems, Inc. #13-145-100) and the secondary antibody is goat anti-mouse IgG linked to β-galactosidase. Thus the extent of viral replication is determined by assessing β-galactosidase activity by quantifying the generation of the 4-methyl umbelliferone fluorescent cleavage product after addition of the methyl umbelliferyl-β-D-galactoside (Sigma #M1633) substrate on a microfluorimeter (365 nm for excitation and 450 nm for emission). Antiviral activity (IC50) of the test compound is determined by comparing the flourescence obtained in absence of compound to that obtained in the presence of compound.
(In general: An ELISA detects its analyte on a solid surface through an enzyme-linked reagent.)

≈ marks a conversion by molar mass, not a printed value. A value given as a limit tells only on which side of the number the result lay.

`COc1ccc(NC(=S)Nc2ccc(NC(C)=O)cc2)c(OC)n1` [Example 896, N-{4-[3-(2,6-Dimethoxy-pyridin-3-yl)-thioureido]-phenyl}-acetamide]: the IC50 in the assay on HSV-1 was 12 µg/mL (≈ 34.6 µM); in the assay with HCMV wild-type it was over 50 µg/mL; in the assay on VZV strain Ellen, over 10 µg/mL. The inhibition at 10 µg/mL with VZV strain Ellen amounted to 17%.

For the compound `CC(=O)Nc1ccc(NC(=S)Nc2ccc(OC3CCN(C)C3)c(Cl)c2)cc1` (centres unmarked) [Example 334, N-(4-{3-[3-Chloro-4-(1-methyl-pyrrolidin-3-yloxy)-phenyl]-thioureido}-phenyl)-acetamide], the IC50 was 35 µg/mL (≈ 83.5 µM) with HSV-1, 18 µg/mL (≈ 43 µM) in the assay with HCMV wild-type and over 10 µg/mL in the assay with VZV strain Ellen. For the same compound, in the assay with VZV strain Ellen, the inhibition at 10 µg/mL was 7%.

As for `CC(=O)Nc1ccc(NC(=S)Nc2cc(Cl)c(C)c(Cl)c2)cc1` [Example 892, N-{4-[3-(3,5-Dichloro-4-methyl-phenyl)-thioureido]-phenyl}-acetamide], the IC50 is 10 µg/mL (≈ 27.2 µM) in the assay with HSV-1, 1 µg/mL (≈ 2.72 µM) with HCMV wild-type and over 10 µg/mL in the assay with VZV strain Ellen. For the same compound, the inhibition at 10 µg/mL in the assay with VZV strain Ellen turned out to be 25%.

In the case of `CC(=O)Nc1ccc(NC(=S)Nc2cc(Cl)c(-n3cccc3)cc2Oc2ccc(Cl)cc2)cc1` [Example 900, N-(4-{3-[5-Chloro-2-(4-chloro-phenoxy)-4-pyrrol-1-yl-phenyl]-thioureido}-phenyl)-acetamide], the IC50 with HSV-1 was over 10 µg/mL; with HCMV wild-type, 2 µg/mL (≈ 3.91 µM); with VZV strain Ellen, 2.5 µg/mL (≈ 4.89 µM). For the same compound, in the assay on VZV strain Ellen, the inhibition at 10 µg/mL amounted to 124%.

Regarding `CC(=O)Nc1ccc(NC(=S)Nc2ccc(NCCN(C)C)c(Cl)c2)cc1` [Example 316, N-(4-{3-[3-Chloro-4-(2-dimethylamino-ethylamino)-phenyl]-thioureido}-phenyl)-acetamide], the IC50 in the assay with HSV-1 was 30 µg/mL (≈ 73.9 µM); in the assay on HCMV wild-type, over 50 µg/mL; in the assay on VZV strain Ellen, over 10 µg/mL. Also, the inhibition at 10 µg/mL in the assay with VZV strain Ellen worked out at 56%.

`CC(=O)Nc1ccc(NC(=S)Nc2ccc(NC3CCN(Cc4ccccc4)CC3)c(Cl)c2)cc1` [Example 315, N-(4-{3-[4-(1-Benzyl-piperidin-4-ylamino)-3-chloro-phenyl]-thioureido}-phenyl)-acetamide]: the IC50 is 8 µg/mL (≈ 15.7 µM) in the assay with HSV-1, 1.5 µg/mL (≈ 2.95 µM) with HCMV wild-type and over 10 µg/mL in the assay on VZV strain Ellen. In the assay on VZV strain Ellen, the inhibition at 10 µg/mL stood at 40%.

Regarding `CCCCOc1cc(OC)c(Cl)cc1NC(=S)Nc1ccc(NC(C)=O)cc1` [Example 833, N-{4-[3-(2-Butoxy-5-chloro-4-methoxy-phenyl)-thioureido]-phenyl}-acetamide], the IC50 was 7 µg/mL (≈ 16.6 µM) in the assay with HSV-1, over 10 µg/mL in the assay on HCMV wild-type and over 10 µg/mL with VZV strain Ellen. In addition, in the assay on VZV strain Ellen, the inhibition at 10 µg/mL came to 54%.

For the compound `COc1c(C)cc(NC(=S)Nc2ccc(NC(C)=O)cc2)cc1Cl` [Example 877, N-{4-[3-(3-Chloro-4-methoxy-5-methyl-phenyl)-thioureido]-phenyl}-acetamide], the IC50 is 30 µg/mL (≈ 82.4 µM) in the assay with HSV-1, 2 µg/mL (≈ 5.5 µM) with HCMV wild-type and over 10 µg/mL in the assay with VZV strain Ellen. Besides, the inhibition at 10 µg/mL in the assay on VZV strain Ellen came out at 15%.

`CC(=O)Nc1ccc(NC(=S)Nc2ccc(NC(=O)CN3CCCCC3)c(Cl)c2)cc1` [Example 363, N-{4-[3-(4-Acetylamino-phenyl)-thioureido]-2-chloro-phenyl}-2-piperidin-1-yl-acetamide]: the IC50 is over 10 µg/mL in the assay on HSV-1, 7 µg/mL (≈ 15.2 µM) in the assay on HCMV wild-type and over 10 µg/mL in the assay with VZV strain Ellen. The inhibition at 10 µg/mL in the assay with VZV strain Ellen came out at 58%.

Consider `CC(=O)Nc1ccc(NC(=S)Nc2cc(C(F)(F)F)ccc2Cl)cc1` [Example 111, N-{4-[3-(2-Chloro-5-trifluoromethyl-phenyl)-thioureido]-phenyl}-acetamide], for which the IC50 with HSV-1 was 15 µg/mL (≈ 38.7 µM); in the assay on HCMV wild-type, 12 µg/mL (≈ 30.9 µM); with VZV strain Ellen, over 10 µg/mL. The inhibition at 10 µg/mL in the assay with VZV strain Ellen is 51%.

For the compound `CC(=O)Nc1ccc(NC(=S)Nc2ccc(OCCCN(C)C)c(Cl)c2)cc1` [Example 336, N-(4-{3-[3-Chloro-4-(3-dimethylamino-propoxy)-phenyl]-thioureido}-phenyl)-acetamide], the IC50 in the assay with HSV-1 is 40 µg/mL (≈ 95 µM); with HCMV wild-type it was 50 µg/mL (≈ 119 µM); in the assay on VZV strain Ellen, over 10 µg/mL. The inhibition at 10 µg/mL in the assay on VZV strain Ellen was 17%.

Consider `CC(=O)Nc1ccc(NC(=S)Nc2cc(Cl)c(OCCOC(C)=O)c(Cl)c2)cc1` [Example 897, Acetic acid 2-{4-[3-(4-acetylamino-phenyl)-thioureido]-2,6-dichloro-phenoxy}-ethyl ester], for which the IC50 is 40 µg/mL (≈ 87.7 µM) in the assay with HSV-1, over 10 µg/mL with HCMV wild-type and over 10 µg/mL in the assay on VZV strain Ellen. The inhibition at 10 µg/mL with VZV strain Ellen was 33%.

`CC(=O)Nc1ccc(NC(=S)Nc2ccc(N(C)C3CCN(Cc4ccccc4)C3)c(Cl)c2)cc1` (centres unmarked) [Example 843, N-[4-(3-{4-[(1-Benzyl-pyrrolidin-3-yl)-methyl-amino]-3-chloro-phenyl}-thioureido)-phenyl]-acetamide]: the IC50 was 5 µg/mL (≈ 9.84 µM) in the assay on HSV-1, 0.7 µg/mL (≈ 1.38 µM) in the assay on HCMV wild-type and over 10 µg/mL in the assay with VZV strain Ellen. For the same compound, in the assay on VZV strain Ellen, the inhibition at 10 µg/mL stood at 50%.

For the compound `CC(=O)Nc1ccc(NC(=S)Nc2ccc(OCCN(C)C)c(Cl)c2)cc1` [Example 343, N-(4-{3-[3-Chloro-4-(2-dimethylamino-ethoxy)-phenyl]-thioureido}-phenyl)-acetamide], the IC50 with HSV-1 is over 50 µg/mL; with HCMV wild-type it was 40 µg/mL (≈ 98.3 µM); in the assay on VZV strain Ellen, over 10 µg/mL. The inhibition at 10 µg/mL with VZV strain Ellen is 38%.

Consider `CCOC(=O)Nc1ccc(NC(=S)Nc2ccc(NC(C)=O)cc2)cc1Cl` [Example 313, {4-[3-(4-Acetylamino-phenyl)-thioureido]-2-chloro-phenyl}-carbamic acid ethyl ester], for which the IC50 in the assay with HSV-1, with HCMV wild-type and with VZV strain Ellen was over 10 µg/mL in each case. Besides, the inhibition at 10 µg/mL in the assay with VZV strain Ellen is 36%.

For the compound `COc1cc(OC)c(C(F)(F)F)cc1NC(=S)Nc1ccc(NC(C)=O)cc1` [Example 131, N-{4-[3-(2,4-Dimethoxy-5-trifluoromethyl-phenyl)-thioureido]-phenyl}-acetamide], the IC50 in the assay on HSV-1 was 15 µg/mL (≈ 36.3 µM); in the assay on HCMV wild-type, under 50 µg/mL; in the assay with VZV strain Ellen it was over 10 µg/mL. Further, the inhibition at 10 µg/mL with VZV strain Ellen stood at 53%.

Consider `COc1cc(OC)c(NC(=S)Nc2ccc(N(C)C(C)=O)cc2)cc1Cl` [Example 99, N-{4-[3-(5-Chloro-2,4-dimethoxy-phenyl)-thioureido]-phenyl}-N-methyl-acetamide], for which the IC50 with HSV-1 was 50 µg/mL (≈ 127 µM); with HCMV wild-type, over 50 µg/mL; in the assay with VZV strain Ellen, over 10 µg/mL. Besides, the inhibition at 10 µg/mL in the assay with VZV strain Ellen is 2%.

In the case of `COc1cc(O)c(NC(=S)Nc2ccc(NC(C)=O)cc2)cc1Cl` [Example 839, N-{4-[3-(5-Chloro-2-hydroxy-4-methoxy-phenyl)-thioureido]-phenyl}-acetamide], the IC50 in the assay on HSV-1 was 10 µg/mL (≈ 27.3 µM); in the assay with HCMV wild-type, 15 µg/mL (≈ 41 µM); in the assay on VZV strain Ellen it was over 10 µg/mL. In addition, in the assay with VZV strain Ellen, the inhibition at 10 µg/mL was found to be 17%.

In the case of `CC(NC(=S)Nc1ccc(NC(=O)Cc2ccccc2)cc1)c1ccc(F)cc1` (centres unmarked) [Example 751, N-(4-{3-[1-(4-Fluoro-phenyl)-ethyl]-thioureido}-phenyl)-2-phenyl-acetamide], the IC50 in the assay on HSV-1 is over 10 µg/mL; in the assay on HCMV wild-type it was over 0.5 µg/mL.

Turning to “N-(4-{3-[1-(4-Fluoro-phenyl)-ethyl]-thioureido}-phenyl)-acetamide [Example 744]”, the “IC50 Ug/ml HSV” value in the assay on HSV-1 is given as over 10 Ug/ml. Also, the “IC50 Ug/ml HCMV” value in the assay with HCMV wild-type is over 0.5 Ug/ml.

On to `CCC(=O)Nc1ccc(NC(=S)NC(C)c2ccc(F)cc2)cc1` (centres unmarked) [Example 813, N-(4-{3-[1-(4-Fluoro-phenyl)-ethyl]-thioureido}-phenyl)-propionamide], for which the IC50 in the assay with VZV strain Ellen was 3.5 µg/mL (≈ 10.1 µM).

(Values after patent publication US6335350B1, “Acetamide and substituted acetamide-containing thiourea inhibitors of herpes viruses” (American Home Products Corporation, priority 1998, dated 2002).)
